Values after ≈ are worked out from the molar mass of the structure shown.
What follows are compounds tested on Fusarium graminearum (assay: Fungicidal activity against Fusarium graminearum 2021 assessed as mycelial growth inhibition after 3 days). Conditions: Fusarium graminearum, 2021, 72 h.
Type: functional, organism-based
For `CCCCNC(=O)n1c(NC(=O)OC)nc2ccccc21` [BENOMYL], the EC50 was 0.61 µg/mL (≈ 2.1 µM). `c1ccc2[nH]c(-c3cscn3)nc2c1` [THIABENDAZOLE] showed an EC50 of 1.13 µg/mL (≈ 5.61 µM). `COC(=O)NC(=S)Nc1ccccc1NC(=S)NC(=O)OC` [THIOPHANATE METHYL] was tested, and the EC50 was 11 µg/mL (≈ 32.2 µM).
